What all share (format): in vivo
One test deals with Viola tricolor. The experiment in a line: Greenhouse post-emergence herbicidal effect against Viola tricolor. The following applies: 408 h, 17 DAA, read-out: % Efficacy; for Emax at 5 g/ha: individual application 5 g of AS/ha. As to the method:
(§1) Post-emergence action against weeds
(§2) Seeds or rhizome pieces of mono- and dicotyledonous harmful plants and of crop plants were placed in sandy loam in plastic pots having a diameter of 4 cm, covered with soil and cultivated in a greenhouse under good growth conditions.
(§3) Ten to twenty days after sowing, the test plants were treated at the one- to three-leaf stage. The herbicide/active compound combinations according to the invention (mixture applications) formulated as suspensions and, in parallel tests, the correspondingly formulated individual active compounds (individual applications) were then sprayed onto the green parts of the plants in various dosages at a water application rate of 300 I/ha (converted).
(§4) After the test plants had been kept in the greenhouse under optimum growth conditions for a certain period of time (DAA, days after application), the herbicidal activity was assessed visually by comparison of treated and untreated plants. The percentages mean: 0%=no herbicidal activity, 100%=the plants die off completely.
(§5) The percentages from the treatments with the herbicides alone (individual applications) and with the combinations according to the invention (mixture applications) were employed to calculate interactions using the method of Colby. When the observed efficacies of the mixture applications exceed the formal sum of the values of the tests with individual applications, they also exceed the expected value according to Colby, which is calculated using the formula below (cf. S. R. Colby; in Weeds 15 (1967) pp. 20 to 22):
(§6) Here: • A, B=activity of component A (triafamone) or B (indaziflam) in percent at a dosage of a and b, respectively, in g of AS/ha (gram of active substance per hectare). • exp. expected value in % at a dosage of a+b g of ai/ha. • b) Results
(§7) The abbreviations in the tables below have the following meanings: • DAA=days after application • g of AS/ha=grams of active substance per hectare • % efficacy=herbicidal effect in percent • meas.=measured values • exp.=expected values according to Colby (calculation: see above) • syn.%=difference (%) of measured value from expected value (%) (measured value minus expected value)/

The subject of another test is Triticum aestivum. The experiment in a line: Greenhouse post-emergence herbicidal effect against Triticum aestivum. The following applies: 216 h, 9 DAA, read-out: % Efficacy; for Emax at 5 g/ha: individual application 5 g of AS/ha; for Emax at 10 g/ha: individual application 10 g of AS/ha; for Emax at 20 g/ha: individual application 20 g of AS/ha. As for the experimental part:
as §1, §2, §3, §4, §5, §6, §7

In the next test the test system is Lolium rigidum. Nature of the test: Greenhouse post-emergence herbicidal effect against Lolium rigidum. The following applies: 216 h, 9 DAA, read-out: % Efficacy; for Emax at 10 g/ha: individual application 10 g of AS/ha; for Emax at 20 g/ha: individual application 20 g of AS/ha. As to the method: as §1, §2, §3, §4, §5, §6, §7
For another test, the system named is Avena fatua. The experiment in a line: Greenhouse post-emergence herbicidal effect against Avena fatua. The following applies: 408 h, 17 DAA, read-out: % Efficacy. As to the method: as §1, §2
(§8) Ten to twenty days after sowing, the test plants were treated at the one- to three-leaf stage. […]
(§9) After the test plants had been kept in the greenhouse under optimum growth conditions for a certain period of time (DAA, days after application), the herbicidal activity was assessed visually by comparison of treated and untreated plants. […]
(§10) The percentages from the treatments with the herbicides alone (individual applications) and with the combinations according to the invention (mixture applications) were employed to calculate interactions using the method of Colby. When the observed efficacies of the mixture applications exceed the formal sum of the values of the tests with individual applications, they also exceed the expected value according to Colby, which is calculated using the formula below (cf. S. R. Colby; in Weeds 15 (1967) pp. 20 to 22): […]

In the next test the test system is Alopecurus myosuroides. The experiment in a line: Greenhouse post-emergence herbicidal effect against Alopecurus myosuroides. The following applies: 408 h, 17 DAA, read-out: % Efficacy; for Emax at 5 g/ha: individual application 5 g of AS/ha. As to the method:
as §1, §2, §3, §4, §5, §6, §7

The next test concerns Glycine max. The experiment in a line: Greenhouse post-emergence herbicidal effect against Glycine max. The following applies: 408 h, 17 DAA, read-out: % Efficacy; for Emax at 10 g/ha: individual application 10 g of AS/ha. As for the experimental part: as §1, §2, §3, §4, §5, §6, §7
A further test relates to Hordeum murinum. Nature of the test: Greenhouse post-emergence herbicidal effect against Hordeum murinum. The following applies: 408 h, 17 DAA, read-out: % Efficacy; for Emax at 20 g/ha: individual application 20 g of AS/ha. As for the experimental part: as §1, §2, §3, §4, §5, §6, §7
The subject of another test is Zea mays. Nature of the test: Greenhouse post-emergence herbicidal effect against Zea mays. The following applies: 408 h, 17 DAA, read-out: % Efficacy; for Emax at 10 g/ha: individual application 10 g of AS/ha. As for the experimental part: as §1, §2, §3, §4, §5, §6, §7
In test [1] the test system is mono- and dicotyledonous harmful plants and crop plants. The experiment in a line: Greenhouse trials, discussion of the results over all test plants. The following applies: at the dosages tested, post-emergence. As for the experimental part: as §1, §2, §8, §9, §10
Setting [2] is: individual application 5 g of AS/ha.
Where [3] appears, read: individual application 10 g of AS/ha.
The mark [4] stands for this setting: individual application 20 g of AS/ha.
Setting [5] is: individual application 2.5 g of AS/ha.

In the case of `Cc1ccc2c(c1)[C@H](Nc1nc(N)nc(C(C)F)n1)[C@@H](C)C2` (stereo partly drawn) [indaziflam], the Emax at 5 g/ha in the test on Viola tricolor stood at 80%; in the test on Triticum aestivum it was 23%; in the test on Avena fatua (setting [2]) it was 10%; in the test with Alopecurus myosuroides, 15%; with Glycine max (setting [2]), 50%. For the same compound, the Emax at 10 g/ha turned out to be 23% in the test with Triticum aestivum; 63% in the test on Lolium rigidum; 60% in the test on Alopecurus myosuroides (setting [3]); 73% with Glycine max; 0% with Zea mays. Moreover, the Emax at 20 g/ha with Triticum aestivum was 48%; with Lolium rigidum, 70%; with Alopecurus myosuroides (setting [4]) it was 75%; in the test on Hordeum murinum it was 40%; in the test with Zea mays (setting [4]), 25%. Also, the Emax at 40 g/ha in the test on Triticum aestivum (individual application 40 g of AS/ha) was 63%.
Regarding `COc1nc(OC)nc(C(=O)c2cccc(F)c2N(C)S(=O)(=O)C(F)F)n1` [triafamone], the Emax at 2.5 g/ha amounted to 0% with Viola tricolor (setting [5]); 0% with Triticum aestivum (setting [5]); 0% in the test on Lolium rigidum (setting [5]); 25% in the test on Alopecurus myosuroides (setting [5]); 0% in the test on Glycine max (setting [5]); 0% in the test on Hordeum murinum (setting [5]). Also, the Emax at 2.5 g/ha with Zea mays (setting [5]) came out at 0%. Besides, the Emax at 5 g/ha in the test with Viola tricolor worked out at 0%; with Triticum aestivum, 0%; in the test with Lolium rigidum (setting [2]), 0%; in the test on Alopecurus myosuroides, 50%; in the test on Hordeum murinum (setting [2]) it was 0%; with Zea mays (setting [2]), 0%. In addition, the Emax at 10 g/ha with Viola tricolor (setting [3]), with Triticum aestivum, in the test with Lolium rigidum, with Avena fatua (setting [3]), in the test on Glycine max and with Zea mays was 0% throughout. In addition, the Emax at 20 g/ha came to 13% in the test with Triticum aestivum, 18% with Lolium rigidum and 0% in the test on Hordeum murinum. The “herbicidal efficacy as individual herbicide” value in test [1] was “frequently ineffective”.

Values taken from US20190387739A1, “HERBICIDAL COMBINATION CONTAINING TRIAFAMONE AND INDAZIFLAM” (Bayer CropScience Aktiengesellschaft, priority 2016, published 2019).
